# System: Sprague-Dawley rats
# Experiment: Clinical chemistry
# Assay type: in vivo, Rattus norvegicus
# Design: key to Cholesterol, Dose response / Triglyserides, Dose response / Glucose, Dose response / Albumin, Dose response / K, Dose response / Total bilirubin, Dose response: D: significant dose response (for results, see Table 2); T: significant trend
# Details: for Alkaline phosphatase, CED / Alkaline phosphatase, CED-L / Chlolesterol, CED / Chlolesterol, CED-L / Glucose, CED / Glucose, CED-L / Potassium, CED / Potassium, CED-L / Total Bilirubin, CED / Total Bilirubin, CED-L / Albumin, CED / Albumin, CED-L / Total protein, CED / Total protein, CED-L / Triglycerides, CED / Triglycerides, CED-L: total dose based
# Experimental: Spectrophotometric methods were used for the determination of serum total calcium, cholesterol, creatinine, glucose, triglycerides and urea. Serum sodium, potassium and chloride concentrations were measured directly by ion selective electrodes. The analyses were performed by a clinical chemistry analyzer (Konelab 30i, ThermoFisher Scientific, Vantaa, Finland). Plasma lactate dehydrogenase (LD) activity was measured according to the recommendations of the International Federation of Clinical Chemistry (IFCC 1994/I) using Konelab 60i clinical chemistry analyzer. Methods and results for liver related parameters (serum alanine aminotransferase [ALT] activity, alkaline phosphatase [ALP] activity, albumin, total protein and total bilirubin are reported separately.
# Data were also analyzed using the BMD method, which is based on dose-response modeling of the full data set using a nested family of exponential and Hill models. The analyses were done on data of males and females combined, using sex as a covariate. […] In that case, different Critical Effect Doses (CEDs) and CEDs at the lowest bound of the confidence interval (CED-L) were generated for each sex. If no difference between sexes is detected, a CED and CED-Ls for the combined data is generated. However, this was also done if the curve fits are close, and separate analyses for males and females were then performed manually. CEDs and CED-Ls were calculated at the predefined Critical Effect Size (CES) of 5% (EFSA standard) or 10%.
# [1] = females, total dose 1700 mg/kg bw
# [2] = females, adipose tissue concentration based
# [3] = males, total dose 0-1700 mg/kg bw
# [4] = males, total dose 1000 mg/kg bw
# [5] = males, total dose 1700 mg/kg bw
# [6] = males, adipose tissue concentration based
smiles,measurement,setting,value
"Clc1cc(Cl)c(-c2cc(Cl)c(Cl)c(Cl)c2Cl)cc1Cl [PCB 180, 2,2′,3′,4,4′,5,5′-heptachlorobiphenyl]",Creatinine,[1],52.5 µmol/L
same,Glucose,[1],12.4 mmol/L
same,K,[1],5.30 mmol/L
same,Na,[1],143.2 mmol/L
same,Total Ca,[1],3.49 mmol/L
same,Total bilirubin,[1],1.37 µmol/L
same,Triglyserides,[1],0.88 mmol/L
same,Urea,[1],10.0 mmol/L
same,"Alkaline phosphatase, CED","females, CES 5%",67.6 mg/kg bw
same,"Alkaline phosphatase, CED-L","females, CES 5%",30.1 mg/kg bw
same,"Chlolesterol, CED","females, CES 5%",192 mg/kg bw
same,"Chlolesterol, CED-L","females, CES 5%",167 mg/kg bw
same,"Glucose, CED","females, CES 5%",677 mg/kg bw
same,"Glucose, CED-L","females, CES 5%",408 mg/kg bw
same,"Potassium, CED","females, CES 5%",1210 mg/kg bw
same,"Potassium, CED-L","females, CES 5%",786 mg/kg bw
same,"Total Bilirubin, CED","females, CES 5%",4.12 mg/kg bw
same,"Total Bilirubin, CED-L","females, CES 5%",0.67 mg/kg bw
same,"Alkaline phosphatase, CED","females, CES 10%",154 mg/kg bw
same,"Alkaline phosphatase, CED-L","females, CES 10%",68.5 mg/kg bw
same,"Chlolesterol, CED","females, CES 10%",375 mg/kg bw
same,"Chlolesterol, CED-L","females, CES 10%",326 mg/kg bw
same,"Glucose, CED","females, CES 10%",1390 mg/kg bw
same,"Glucose, CED-L","females, CES 10%",839 mg/kg bw
same,"Potassium, CED","females, CES 10%",2490 mg/kg bw
same,"Potassium, CED-L","females, CES 10%",1614 mg/kg bw
same,"Total Bilirubin, CED","females, CES 10%",10.3 mg/kg bw
same,"Total Bilirubin, CED-L","females, CES 10%",1.63 mg/kg bw
same,"Serum ALP activity, CED",[2],308 µg/g lipid
same,"Serum cholesterol, CED",[2],640 µg/g lipid
same,"Albumin, Dose response",[3],T
same,"Cholesterol, Dose response",[3],T
same,"Glucose, Dose response",[3],T
same,"Triglyserides, Dose response",[3],T
same,Albumin,"males, total dose 3 mg/kg bw",32.6 g/L
same,Cholesterol,"males, total dose 3 mg/kg bw",2.72 mmol/L
same,Cl,"males, total dose 3 mg/kg bw",96.9 mmol/L
same,Creatinine,"males, total dose 3 mg/kg bw",54.2 µmol/L
same,Glucose,"males, total dose 3 mg/kg bw",18.9 mmol/L
same,K,"males, total dose 3 mg/kg bw",5.76 mmol/L
same,Na,"males, total dose 3 mg/kg bw",143.1 mmol/L
same,Total Ca,"males, total dose 3 mg/kg bw",3.43 mmol/L
same,Total bilirubin,"males, total dose 3 mg/kg bw",2.02 µmol/L
same,Triglyserides,"males, total dose 3 mg/kg bw",0.84 mmol/L
same,Urea,"males, total dose 3 mg/kg bw",9.0 mmol/L
same,Albumin,"males, total dose 10 mg/kg bw",32.9 g/L
same,Cholesterol,"males, total dose 10 mg/kg bw",2.84 mmol/L
same,Cl,"males, total dose 10 mg/kg bw",96.8 mmol/L
same,Creatinine,"males, total dose 10 mg/kg bw",51.5 µmol/L
same,Glucose,"males, total dose 10 mg/kg bw",14.9 mmol/L
same,K,"males, total dose 10 mg/kg bw",6.12 mmol/L
same,Na,"males, total dose 10 mg/kg bw",143.0 mmol/L
same,Total Ca,"males, total dose 10 mg/kg bw",3.41 mmol/L
same,Total bilirubin,"males, total dose 10 mg/kg bw",1.58 µmol/L
same,Triglyserides,"males, total dose 10 mg/kg bw",0.88 mmol/L
same,Urea,"males, total dose 10 mg/kg bw",8.2 mmol/L
same,Albumin,"males, total dose 30 mg/kg bw",32.8 g/L
same,Cholesterol,"males, total dose 30 mg/kg bw",2.74 mmol/L
same,Cl,"males, total dose 30 mg/kg bw",96.0 mmol/L
same,Creatinine,"males, total dose 30 mg/kg bw",53.8 µmol/L
same,Glucose,"males, total dose 30 mg/kg bw",18.6 mmol/L
same,K,"males, total dose 30 mg/kg bw",5.93 mmol/L
same,Na,"males, total dose 30 mg/kg bw",142.9 mmol/L
same,Total Ca,"males, total dose 30 mg/kg bw",3.44 mmol/L
same,Total bilirubin,"males, total dose 30 mg/kg bw",1.46 µmol/L
same,Triglyserides,"males, total dose 30 mg/kg bw",0.65 mmol/L
same,Urea,"males, total dose 30 mg/kg bw",9.3 mmol/L
same,Albumin,"males, total dose 100 mg/kg bw",33.1 g/L
same,Cholesterol,"males, total dose 100 mg/kg bw",3.56 mmol/L
same,Cl,"males, total dose 100 mg/kg bw",96.3 mmol/L
same,Creatinine,"males, total dose 100 mg/kg bw",53.4 µmol/L
same,Glucose,"males, total dose 100 mg/kg bw",17.8 mmol/L
same,K,"males, total dose 100 mg/kg bw",5.74 mmol/L
same,Na,"males, total dose 100 mg/kg bw",143.0 mmol/L
same,Total Ca,"males, total dose 100 mg/kg bw",3.58 mmol/L
same,Total bilirubin,"males, total dose 100 mg/kg bw",1.54 µmol/L
same,Triglyserides,"males, total dose 100 mg/kg bw",0.34 mmol/L
same,Urea,"males, total dose 100 mg/kg bw",9.2 mmol/L
same,Albumin,"males, total dose 300 mg/kg bw",32.5 g/L
same,Cholesterol,"males, total dose 300 mg/kg bw",3.44 mmol/L
same,Cl,"males, total dose 300 mg/kg bw",96.3 mmol/L
same,Creatinine,"males, total dose 300 mg/kg bw",52.6 µmol/L
same,Glucose,"males, total dose 300 mg/kg bw",17.7 mmol/L
same,K,"males, total dose 300 mg/kg bw",5.73 mmol/L
same,Na,"males, total dose 300 mg/kg bw",142.7 mmol/L
same,Total Ca,"males, total dose 300 mg/kg bw",3.46 mmol/L
same,Total bilirubin,"males, total dose 300 mg/kg bw",1.73 µmol/L
same,Triglyserides,"males, total dose 300 mg/kg bw",0.36 mmol/L
same,Urea,"males, total dose 300 mg/kg bw",9.0 mmol/L
same,Albumin,[4],34.2 g/L
same,Cholesterol,[4],4.35 mmol/L
same,Cl,[4],95.7 mmol/L
same,Creatinine,[4],53.8 µmol/L
same,Glucose,[4],11.8 mmol/L
same,K,[4],6.12 mmol/L
same,Na,[4],142.6 mmol/L
same,Total Ca,[4],3.45 mmol/L
same,Total bilirubin,[4],1.84 µmol/L
same,Triglyserides,[4],0.32 mmol/L
same,Urea,[4],9.9 mmol/L
same,Albumin,[5],34.4 g/L
same,Cholesterol,[5],5.15 mmol/L
same,Cl,[5],97.7 mmol/L
same,Creatinine,[5],55.4 µmol/L
same,Glucose,[5],12.7 mmol/L
same,K,[5],5.89 mmol/L
same,Na,[5],143.4 mmol/L
same,Total Ca,[5],3.53 mmol/L
same,Total bilirubin,[5],1.87 µmol/L
same,Triglyserides,[5],0.44 mmol/L
same,Urea,[5],9.1 mmol/L
same,"Albumin, CED","males, CES 5%",1550 mg/kg bw
same,"Albumin, CED-L","males, CES 5%",1090 mg/kg bw
same,"Alkaline phosphatase, CED","males, CES 5%",542 mg/kg bw
same,"Alkaline phosphatase, CED-L","males, CES 5%",327 mg/kg bw
same,"Chlolesterol, CED","males, CES 5%",38.3 mg/kg bw
same,"Chlolesterol, CED-L","males, CES 5%",19.5 mg/kg bw
same,"Glucose, CED","males, CES 5%",198 mg/kg bw
same,"Glucose, CED-L","males, CES 5%",146 mg/kg bw
same,"Total protein, CED","males, CES 5%",255 mg/kg bw
same,"Total protein, CED-L","males, CES 5%",134 mg/kg bw
same,"Triglycerides, CED","males, CES 5%",3.31 mg/kg bw
same,"Triglycerides, CED-L","males, CES 5%",1.90 mg/kg bw
same,"Albumin, CED","males, CES 10%",3040 mg/kg bw
same,"Albumin, CED-L","males, CES 10%",2130 mg/kg bw
same,"Alkaline phosphatase, CED","males, CES 10%",1110 mg/kg bw
same,"Alkaline phosphatase, CED-L","males, CES 10%",672 mg/kg bw
same,"Chlolesterol, CED","males, CES 10%",79.0 mg/kg bw
same,"Chlolesterol, CED-L","males, CES 10%",40.4 mg/kg bw
same,"Glucose, CED","males, CES 10%",408 mg/kg bw
same,"Glucose, CED-L","males, CES 10%",300 mg/kg bw
same,"Total protein, CED","males, CES 10%",702 mg/kg bw
same,"Total protein, CED-L","males, CES 10%",379 mg/kg bw
same,"Triglycerides, CED","males, CES 10%",6.92 mg/kg bw
same,"Triglycerides, CED-L","males, CES 10%",3.97 mg/kg bw
same,"Serum chlolesterol, CED-L",[6],91400 ng/g lipid
same,"Serum cholesterol, CED",[6],177 µg/g lipid
same,"Serum total protein, CED",[6],1080 µg/g lipid
same,"Serum triglyceride, CED",[6],12.5 µg/g lipid
same,"Serum triglycerids, CED-L",[6],7260 ng/g lipid

# — paper PMC4138103 (PLoS ONE, 2014)
